Measured values as given in patent US12275685B2, “Oligo-benzamide analogs and their use in cancer treatment” (Board of Regents, The University of Texas System, priority 2018, dated 2025).

What was measured:
[1] = system: nuclear receptor (NR) interaction with its coregulator proteins; assay: Inhibition of nuclear receptor-coregulator interaction in cancer cells; format: cell-based
Protocol: The present oligo-benzamide analogs are extremely potent and effective on various cancer cells including breast cancer, ovarian cancer, and pancreatic cancer. These compounds have a unique mode of action compared to existing therapeutic treatments to these diseases. The compounds are very potent with IC50 values of 10-50 nM for growth inhibition. TK41 is a tris-benzamide analog and it inhibits nuclear receptor (NR) interaction with its coregulator proteins in cancer cells with high potency (IC50 is approximately 100 nM; FIGS. 1-4).

primary TNBC tumors = assay: Ex vivo patient derived explant (PDE) cultures of TNBC; format: cell-based, human
Protocol: FIGS. 38A-E: LIPA is a viable molecular target in TNBC. (FIG. 38A) Kaplan-Meier curves show the correlation between expression levels of LAL with survival outcomes using a TCGA dataset with numerical tabulation below. (FIGS. 38B-D) Following surgical extirpation, primary TNBC tumors were cultured ex vivo either with vehicle or 1 μM ERX-41, as shown by the schematic (FIG. 38B). The effect on proliferation index (ki67) (FIG. 38C) and apoptosis markers (cleaved caspase 3) (FIG. 38D) is graphed. Representative immunohistochemical images of the effect of ERX-41 on ki67, cleaved caspase 3 and UPR genes shown (FIG. 38E).
ERX-41 has activity on human TNBC tumors. To ascertain that ERX-41 would have activity against primary TNBC tumors, the inventors leveraged their prior significant experience with the ex vivo patient derived explant (PDE) cultures […]. The PDE cultures, maintains the native tissue architecture and better recapitulates the heterogeneity of human TNBC in a laboratory setting.

[2] = system: SUM-159 cells with LIPA KO and reconstitution of LIPA; assay: Dose response in SUM-159 LIPA KO cells reconstituted with LIPA constructs; format: cell-based
Description: FIGS. 39A-N: (FIGS. 39A-E) Predicted binding mode of ERX-41 (colored in green) on the human lysosomal acid lipase (LAL, PDB code: 6V7N, LXXLL (SEQ ID NO: 1) domain colored in orange). (FIG. 39F) PDB structure of LAL protein showing relative positions of the catalytic domain (with H274Y MT) and the LXXLL (SEQ ID NO: 1) domain (L242P MT). (FIG. 39G) Evaluation of the effect of ERX-41 and lalistat (known lipase inhibitor) on lipase activity of parental SUM-159 (WT) and SUM-159 cells with LIPA KO. (FIG. 39H) Evaluation of basal lipase activity in parental SUM-159 (WT), SUM-159 cells with LIPA KO (KO), SUM-159 cells with LIPA KO and with reconstitution of either WT LIPA (KO+WT), H274Y MT-LIPA (KO+H274Y), DLXXLL (SEQ ID NO: 2) MT-LIPA (KO+DLXXLL (SEQ ID NO: 2)) or L242P MT-LIPA (KO+L242P). Protein expression of LAL and control vinculin in these cells are shown below (FIG. 391) Cellular lysates from described SUM-159 cells were incubated with biotinylated ERX-11 or biotinylated ERX-41 and then subject to a streptavidin column. Elutants were then evaluated for LIPA pulldown by western blotting. (FIG. 39J) Dose response curve to increasing concentrations of ERX-41 in described SUM-159 cells. (FIGS. 39K-M) Effect of vehicle or 1 μM ERX-41 on induction of UPR genes at the protein level (FIG. 39K) or RNA level (FIGS. 39L-M). […]

[3] = system: triple-negative breast cancer cells (TNBC); assay: Growth inhibition of TNBC cells; format: cell-based
Description: FIGS. 10A & 10B show effects of TK208 against cancer cells.
TNBC is difficult to be treated and currently there are no good drugs available in the market.
In addition, another tris-benzmaide compound TK208 was synthesized and tested against breast cancer and ovarian cancer cell lines (FIGS. 10-15). […] These compounds (e.g., TK41, TK208, TK308 (FIG. 21), TK309 (FIG. 22), TK314, TK315) are extremely potent compounds that inhibit tumor growth and kill breast and ovarian cancer cells and as such, they are superb therapeutic candidates for such diseases.

[4] = system: 22 human preclinical TNBC cell line models; assay: WST assay in TNBC cell lines; format: cell-based; conditions: 22 TNBC cell lines, read-out: IC50, WST assays
Description: FIGS. 34A-C: Dose response curve of ERX-41 in multiple TNBC. cell lines using WST-1 assays (FIG. 34A) and CellTiter-Glo assays (FIG. 34B). […] Quantification of the number of dead cells over time seen with live cell imaging in MDAMB-231 and HMEC cells is shown.
To evaluate the generalizability of the inventors' findings, they evaluated ERX-41 in a large number of TNBC and ERa-positive cell lines.

## CC(C)COc1cc(C(=O)Nc2ccc(C(=O)N[C@H]3CC[C@H](C)CC3)cc2OCC(C)C)ccc1NC(=O)c1ccc([N+](=O)[O-])c(OCCO)c1 [TK41]
[1]
  IC50: ~100 nM
Primary TNBC tumors; 1 μM ex vivo
  apoptosis (cleaved caspase 3 staining): increased apoptosis
  proliferation (ki67 staining): decreased proliferation
Primary TNBC tumors; within 24 h after treatment
  UPR pathway markers by immunohistochemistry: enhanced pPERK, CHOP (protein product of DDIT3 gene) and peiF2a staining
[2]; KO+H274Y
  sensitivity after reconstitution of H274Y MT-LIPA: restored sensitivity
[2]; SUM159, KO+WT (WT-LIPA reconstituted)
  IC50: 250 nM
[3]
  IC50: < 100 nM
[4]
  IC50: < 500 nM
